Paper PMC4140855, “Production of an Attenuated Phenol-Soluble Modulin Variant Unique to the MRSA Clonal Complex 30 Increases Severity of Bloodstream Infection” (PLoS Pathogens, 2014)

Legend:
[1] = test system: abscess or lesion; experiment: Mouse model of skin infection (abscess sizes); type: in vivo; settings: Crl∶SKH1-hrBR mice, subcutaneous, 14 d; expressed in strains MRSA252 and 22030
Experimental: The mouse skin infection model was performed as described. Briefly, six to eight week-old female Crl∶SKH1-hrBR hairless mice (Charles River Laboratories) were injected subcutaneously with ∼4×10^7 CFU of S. aureus strains 252 or 252*, or ∼5×10^6 CFU of S. aureus strains 22030 or 22030* in 50 µl of PBS in the left flank of the mouse. The length (L) and width (W) of the abscess or lesion caused by the bacterial infection was measured with an electronic caliper daily for 14 d post infection and calculated using the formula L×W. Typically, strain MRSA252 caused closed abscesses and strain 22030 open lesions. All animals were euthanized after completion of the entire procedure. All mouse experiments were performed blinded at the animal care facility of the NIAID, Building 33, in compliance with the guidelines of the NIAID/NIH Institutional Animal Care and Use Committee.
Supplementary file ppat.1004298.s002.tif: Figure S2 Mouse model of skin infection. […] The length (L) and width (W) of the abscess or lesion caused by the bacterial infection was measured with an electronic caliper daily for 14 d post infection and calculated using the formula L×W. Typically, strain MRSA 252 caused closed abscesses and strain 22030 open lesions. […]

[2] = test system: human erythrocytes; experiment: Hemolysis; type: cell-based; settings: synthetic peptides, 37°C, 1 h, 2% erythrocytes, OD 540 nm; 2 donors, triplicate; compared to PSMα3N22Y
Experimental: Figure 5 PSMα3N22Y has diminished cytolytic activities. (A) PMN lysis of synthetic PSMα3N22Y versus PSMα3. Data are from 2 donors, measured in triplicate each after incubation at 37°C for 1 h. […] (B) Hemolysis of synthetic PSMα3N22Y versus PSMα3. Data are from 2 donors, measured in triplicate, after incubation at 37°C for 1 h. (C, D) PMN lysis and hemolysis, respectively, of culture filtrates from PSMα3N22Y- versus PSMα3-producing strains when expressed on plasmids. pTXΔ16 is the empty control vector. The background strain in all constructs is a PSM-free USA300 strain (LACΔpsmαΔpsmβΔhld). Culture filtrates were diluted 1∶20 for the PMN lysis and 1∶2 for the hemolysis measurements. PMN lysis results are from two and hemolysis data from one donor, with three replicates measured each. (E) PMN lysis of culture filtrates from MRSA252 (252) versus 252*, in which the psmα3 gene (expressing PSMα3N22Y) on the genome was changed to express PSMα3 as present in all non-CC30 strains. […] Culture filtrates were diluted 1∶10. *, p<0.05 (paired t-test). […]
Hemolysis assays were performed according to Wang et al. Briefly, whole blood from humans was washed twice with ice-cold DPBS. […] After incubation at 37°C for 1 h, the plates were centrifuged at 233×g at 4°C for 5 min, supernatants were collected, and the optical density was measured at 540 nm.

[3] = test system: human neutrophils; settings: ref [11]; cited from earlier work
Excerpt: PSMs are short, amphipathic, α-helical peptides with a major impact on S. aureus virulence, [11]. The PSMα peptides of S. aureus in particular cause lysis of a variety of cell types, including neutrophils (or polymorphonuclear leukocytes, PMNs), monocytes, erythrocytes, and osteoblasts [11]–[13]. The rather low target specificity of PSM-mediated cytolysis is due to the fact that lysis is believed to be receptor-independent, [15], which is reflected by the capacity of PSMs to lyse artificial vesicles. In addition, PSMs have pro-inflammatory capacities that are recep ...

| SMILES | Virulence in skin infections as measured by abscess sizes [1] | Cytolytic capacity toward human erythrocytes [2] | Capacity to elicit chemotaxis by neutrophils, relative to other PSMs [3] | Pro-inflammatory and cytolytic potency relative to other PSMs of S. aureus [3] |
| --- | --- | --- | --- | --- |
| CSCC[C@H](NC=O)C(=O)N[C@@H](CCC(=O)O)C(=O)N[C@@H](Cc1ccccc1)C(=O)N[C@H](C(=O)N[C@@H](C)C(=O)N[C@@H](CCCCN)C(=O)N[C@@H](CC(C)C)C(=O)N[C@@H](Cc1ccccc1)C(=O)N[C@@H](CCCCN)C(=O)N[C@@H](Cc1ccccc1)C(=O)N[C@@H](Cc1ccccc1)C(=O)N[C@@H](CCCCN)C(=O)N[C@@H](CC(=O)O)C(=O)N[C@@H](CC(C)C)C(=O)N[C@@H](CC(C)C)C(=O)NCC(=O)N[C@@H](CCCCN)C(=O)N[C@@H](Cc1ccccc1)C(=O)N[C@@H](CC(C)C)C(=O)NCC(=O)N[C@@H](CC(N)=O)C(=O)N[C@@H](Cc1ccc(O)cc1)C(=O)O)C(C)C [PSMα3N22Y] | did not cause increased virulence in skin infections |  |  |  |
| CSCC[C@H](NC=O)C(=O)N[C@@H](CCC(=O)O)C(=O)N[C@@H](Cc1ccccc1)C(=O)N[C@H](C(=O)N[C@@H](C)C(=O)N[C@@H](CCCCN)C(=O)N[C@@H](CC(C)C)C(=O)N[C@@H](Cc1ccccc1)C(=O)N[C@@H](CCCCN)C(=O)N[C@@H](Cc1ccccc1)C(=O)N[C@@H](Cc1ccccc1)C(=O)N[C@@H](CCCCN)C(=O)N[C@@H](CC(=O)O)C(=O)N[C@@H](CC(C)C)C(=O)N[C@@H](CC(C)C)C(=O)NCC(=O)N[C@@H](CCCCN)C(=O)N[C@@H](Cc1ccccc1)C(=O)N[C@@H](CC(C)C)C(=O)NCC(=O)N[C@@H](CC(N)=O)C(=O)N[C@@H](CC(N)=O)C(=O)O)C(C)C [PSMα3] |  | significantly higher cytolytic capacities | by far exceeds that of any other PSM of S. aureus | by far most pro-inflammatory and cytolytic PSM of S. aureus |
